# Assay results published in patent US20230131899A1, “INHIBITORS OF MICROBIALLY INDUCED AMYLOID” (Axial Therapeutics, Inc., priority 2020, published 2023).
# pIC50: −log10 of the molar value. Read-outs that look alike come from different tables or passages of the source.
# System: CsgA gene expression (csgBAC promoter-GFP reporter) in E. coli UTI89
# Experiment: In vitro live cell fluorescent reporter assay of CsgA transcription (Reporter Assay)
# Format: cell-based
# Settings: Escherichia coli; for pIC50: read-out: Reporter Assay Abs IC50 (activity range), median Abs IC50 in the CsgA reporter assay, class symbol; for IC50: read-out: Reporter Assay Abs IC50 (μM), median Abs IC50 in the CsgA reporter assay, N/A = maximum expression reduction is <50% of control
# Method in brief: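 Compounds at 0.14–100 μM (1% DMSO final) incubated 20 h at 27 °C in YESCA broth with UTI89 carrying a single-copy GFP reporter under the csgBAC intergenic promoter region, inoculum OD600 0.003. Fluorescence normalized to vehicle wells gave IC50 and 50%-of-vehicle concentration; OD600 reduction >10% flagged growth impact.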
structure (smiles),measurement,value
"O=C(O)C1CSc2c(-c3cccc(C(F)(F)F)c3)c(Cc3cccc4ccccc34)cc(=O)n21 (racemic) [Compound 011, 7-(naphthalen-1-ylmethyl)-5-oxo-8-(3-(trifluoromethyl)phenyl)-2,3-dihydro-5H-thiazolo[3,2-a]pyridine-3-carboxylic acid]",pIC50,5.00 to 5.34
same,IC50,5.8 µM
"CCCN1CC(C(=O)O)n2c(c(-c3cccc(C(F)(F)F)c3)c(Cc3cccc4ccccc34)cc2=O)S1(=O)=O (racemic) [Compound 016, 8-(naphthalen-1-ylmethyl)-6-oxo-2-propyl-9-(3-(trifluoromethyl)phenyl)-3,4-dihydro-2H,6H-pyrido[1,2-e][1,2,5]thiadiazine-4-carboxylic acid 1,1-dioxide]",pIC50,5.00 to 5.34
same,IC50,5 µM
"Nc1c(Cc2cccc3ccccc23)c(-c2cccc(C(F)(F)F)c2)c2n(c1=O)C(C(=O)O)CS2 (racemic) [Compound 020, 6-amino-7-(naphthalen-1-ylmethyl)-5-oxo-8-(3-(trifluoromethyl)phenyl)-2,3-dihydro-5H-thiazolo[3,2-a]pyridine-3-carboxylic acid]",pIC50,5.35 to 5.89
same,IC50,3.9 µM
"CCCCCN1CC(C(=O)O)n2c(c(-c3cccc(C(F)(F)F)c3)c(Cc3cccc4ccccc34)cc2=O)S1(=O)=O (racemic) [Compound 025, 8-(naphthalen-1-ylmethyl)-6-oxo-2-pentyl-9-(3-(trifluoromethyl)phenyl)-3,4-dihydro-2H,6H-pyrido[1,2-e][1,2,5]thiadiazine-4-carboxylic acid 1,1-dioxide]",pIC50,5.35 to 5.89
same,IC50,1.9 µM
"O=C(O)C1C[S+]([O-])c2c(-c3cccc(C(F)(F)F)c3)c(Cc3cccc4ccccc34)cc(=O)n21 (racemic) [Compound 027b, 7-(naphthalen-1-ylmethyl)-5-oxo-8-(3-(trifluoromethyl)phenyl)-2,3-dihydro-5H-thiazolo[3,2-a]pyridine-3-carboxylic acid 1-oxide]",pIC50,< 5.00
same,IC50,77.5 µM
"O=C(O)[C@@H]1CS(=O)(=O)c2c(-c3cccc(C(F)(F)F)c3)c(Cc3cccc4ccccc34)cc(=O)n21 (single isomer, unassigned) [Compound 010a, 7-(naphthalen-1-ylmethyl)-5-oxo-8-(3-(trifluoromethyl)phenyl)-2,3-dihydro-5H-thiazolo[3,2-a]pyridine-3-carboxylic acid 1,1-dioxide]",pIC50,< 5.00
same,IC50,43.9 µM
"O=C(O)[C@H]1CS(=O)(=O)c2c(-c3cccc(C(F)(F)F)c3)c(Cc3cccc4ccccc34)cc(=O)n21 (single isomer, unassigned) [Compound 010b, 7-(naphthalen-1-ylmethyl)-5-oxo-8-(3-(trifluoromethyl)phenyl)-2,3-dihydro-5H-thiazolo[3,2-a]pyridine-3-carboxylic acid 1,1-dioxide]",pIC50,< 5.00
same,IC50,58.5 µM
"O=C(O)C1CSc2c(-c3cccc(C(F)(F)F)c3)c(Cc3cccc4ccccc34)cc(=O)n21 (single isomer, unassigned) [Compound 011a, 7-(naphthalen-1-ylmethyl)-5-oxo-8-(3-(trifluoromethyl)phenyl)-2,3-dihydro-5H-thiazolo[3,2-a]pyridine-3-carboxylic acid]",pIC50,5.35 to 5.89
same,IC50,4.4 µM
"CCN1CC(C(=O)O)n2c(c(-c3cccc(C(F)(F)F)c3)c(Cc3cccc4ccccc34)cc2=O)S1(=O)=O (single isomer, unassigned) [Compound 015a, 2-ethyl-8-(naphthalen-1-ylmethyl)-6-oxo-9-(3-(trifluoromethyl)phenyl)-3,4-dihydro-2H,6H-pyrido[1,2-e][1,2,5]thiadiazine-4-carboxylic acid 1,1-dioxide]",pIC50,< 5.00
same,IC50,21.7 µM
"COc1ccc(CN2C[C@@H](C(=O)O)n3c(c(-c4cccc(C(F)(F)F)c4)c(Cc4cccc5ccccc45)cc3=O)S2(=O)=O)cc1 (single isomer, unassigned) [Compound 026a]",pIC50,5.35 to 5.89
same,IC50,2 µM
"CN(C)CCN1CC(C(=O)O)n2c(c(-c3cccc(C(F)(F)F)c3)c(Cc3cccc4ccccc34)cc2=O)S1(=O)=O (stereo not drawn) [Compound 017, 2-(2-(dimethylamino)ethyl)-8-(naphthalen-1-ylmethyl)-6-oxo-9-(3-(trifluoromethyl)phenyl)-3,4-dihydro-2H,6H-pyrido[1,2-e][1,2,5]thiadiazine-4-carboxylic acid 1,1-dioxide]",pIC50,5.35 to 5.89
same,IC50,2.7 µM
"O=C(O)CN1CC(C(=O)O)n2c(c(-c3cccc(C(F)(F)F)c3)c(Cc3cccc4ccccc34)cc2=O)S1(=O)=O (stereo not drawn) [Compound 018, 2-(carboxymethyl)-8-(naphthalen-1-ylmethyl)-6-oxo-9-(3-(trifluoromethyl)phenyl)-3,4-dihydro-2H,6H-pyrido[1,2-e][1,2,5]thiadiazine-4-carboxylic acid 1,1-dioxide]",pIC50,< 5.00
same,IC50,148 µM
"O=C(O)C1CSc2c(-c3cccc(C(F)(F)F)c3)c(Cc3cccc4ccccc34)nc(=O)n21 (stereo not drawn) [Compound 022, 7-(naphthalen-1-ylmethyl)-5-oxo-8-(3-(trifluoromethyl)phenyl)-2,3-dihydro-5H-thiazolo[3,2-c]pyrimidine-3-carboxylic acid]",pIC50,5.35 to 5.89
same,IC50,4.1 µM
"Nc1c(Cc2cccc3ccccc23)c(-c2cccc(C(F)(F)F)c2)c2n(c1=O)C(C(=O)O)CS2(=O)=O (stereo not drawn) [Compound 023, 6-amino-7-(naphthalen-1-ylmethyl)-5-oxo-8-(3-(trifluoromethyl)phenyl)-2,3-dihydro-5H-thiazolo[3,2-a]pyridine-3-carboxylic acid 1,1-dioxide]",pIC50,< 5.00
same,IC50,19.6 µM
"C=CCCN1CC(C(=O)O)n2c(c(-c3cccc(C(F)(F)F)c3)c(Cc3cccc4ccccc34)cc2=O)S1(=O)=O (stereo not drawn) [Compound 024, 2-(but-3-en-1-yl)-8-(naphthalen-1-ylmethyl)-6-oxo-9-(3-(trifluoromethyl)phenyl)-3,4-dihydro-2H,6H-pyrido[1,2-e][1,2,5]thiadiazine-4-carboxylic acid 1,1-dioxide]",pIC50,5.00 to 5.34
same,IC50,9.9 µM
"NC(=O)CN1CC(C(=O)O)n2c(c(-c3cccc(C(F)(F)F)c3)c(Cc3cccc4ccccc34)cc2=O)S1(=O)=O (stereo not drawn) [Compound 028, 2-(2-amino-2-oxoethyl)-8-(naphthalen-1-ylmethyl)-6-oxo-9-(3-(trifluoromethyl)phenyl)-3,4-dihydro-2H,6H-pyrido[1,2-e][1,2,5]thiadiazine-4-carboxylic acid 1,1-dioxide]",pIC50,< 5.00
same,IC50,18.2 µM
"CN1CC(C(N)=O)n2c(c(-c3cccc(C(F)(F)F)c3)c(Cc3cccc4ccccc34)cc2=O)S1(=O)=O (stereo not drawn) [Compound 030, 2-methyl-8-(naphthalen-1-ylmethyl)-6-oxo-9-(3-(trifluoromethyl)phenyl)-3,4-dihydro-2H,6H-pyrido[1,2-e][1,2,5]thiadiazine-4-carboxamide 1,1-dioxide]",pIC50,5.00 to 5.34
same,IC50,5 µM
"CN1CC(C(=O)O)n2c(c(-c3cccc(C(F)(F)F)c3)c(Cc3cccc4ccccc34)c(N)c2=O)S1(=O)=O (stereo not drawn) [Compound 074, 7-amino-2-methyl-8-(naphthalen-1-ylmethyl)-6-oxo-9-(3-(trifluoromethyl)phenyl)-3,4-dihydro-2H,6H-pyrido[1,2-e][1,2,5]thiadiazine-4-carboxylic acid 1,1-dioxide]",pIC50,< 5.00
same,IC50,29.2 µM
"CN(C)Cc1c(Cc2cccc3ccccc23)c(-c2cccc(C(F)(F)F)c2)c2n(c1=O)C(C(=O)O)CS2 (stereo not drawn) [Compound 075, 6-((dimethylamino)methyl)-7-(naphthalen-1-ylmethyl)-5-oxo-8-(3-(trifluoromethyl)phenyl)-2,3-dihydro-5H-thiazolo[3,2-a]pyridine-3-carboxylic acid]",pIC50,5.00 to 5.34
same,IC50,5.6 µM
"CN1CC(C(=O)O)n2c(c(-c3cccc(C(F)(F)F)c3)c(Cc3cccc4ccccc34)c(C(N)=O)c2=O)S1(=O)=O (stereo not drawn) [Compound 109, 7-carbamoyl-2-methyl-8-(naphthalen-1-ylmethyl)-6-oxo-9-(3-(trifluoromethyl)phenyl)-3,4-dihydro-2H,6H-pyrido[1,2-e][1,2,5]thiadiazine-4-carboxylic acid 1,1-dioxide]",pIC50,5.35 to 5.89
same,IC50,1.9 µM
"CCc1c(Cc2cccc3ccccc23)c(-c2cccc(C(F)(F)F)c2)c2n(c1=O)C(C(=O)O)CN(C1CCCCC1)S2(=O)=O (stereo not drawn) [Compound 116, 2-cyclohexyl-7-ethyl-8-(naphthalen-1-ylmethyl)-6-oxo-9-(3-(trifluoromethyl)phenyl)-3,4-dihydro-2H,6H-pyrido[1,2-e][1,2,5]thiadiazine-4-carboxylic acid 1,1-dioxide]",pIC50,5.35 to 5.89
same,IC50,1.5 µM
"CN1CC(C(=O)O)n2c1c(-c1cccc(C(F)(F)F)c1)c(Cc1cccc3ccccc13)c(Br)c2=O (stereo not drawn) [Compound 119, 6-bromo-1-methyl-7-(naphthalen-1-ylmethyl)-5-oxo-8-(3-(trifluoromethyl)phenyl)-1,2,3,5-tetrahydroimidazo[1,2-a]pyridine-3-carboxylic acid]",pIC50,5.35 to 5.89
same,IC50,2.5 µM
"O=C(O)C1CN(CCCO)S(=O)(=O)c2c(-c3cccc(C(F)(F)F)c3)c(Cc3cccc4ccccc34)c(NC3CCCC3)c(=O)n21 (stereo not drawn) [Compound 120, 7-(cyclopentylamino)-2-(3-hydroxypropyl)-8-(naphthalen-1-ylmethyl)-6-oxo-9-(3-(trifluoromethyl)phenyl)-3,4-dihydro-2H,6H-pyrido[1,2-e][1,2,5]thiadiazine-4-carboxylic acid 1,1-dioxide]",pIC50,5.35 to 5.89
same,IC50,3.1 µM
"O=C(O)C1CN(CCCCO)S(=O)(=O)c2c(-c3cccc(C(F)(F)F)c3)c(Cc3cccc4ccccc34)c(NC3CCCC3)c(=O)n21 (stereo not drawn) [Compound 121, 7-(cyclopentylamino)-2-(4-hydroxybutyl)-8-(naphthalen-1-ylmethyl)-6-oxo-9-(3-(trifluoromethyl)phenyl)-3,4-dihydro-2H,6H-pyrido[1,2-e][1,2,5]thiadiazine-4-carboxylic acid 1,1-dioxide]",pIC50,5.35 to 5.89
same,IC50,2 µM
